# Test results taken from US20130317037A1, “METHOD OF ADMINISTRATION AND TREATMENT” (GlaxoSmithKline Intellectual Property Development Limited, priority 2010, published 2013).
# Like-named read-outs stand apart in the source and are kept apart here.
# What was measured:
# Format in all cases: cell-based
# HCC1143 = test: cells
# Description: (§1) From the stock concentration, 8 serial dilutions (1:5) were made with DMSO.
# (§2) Day −1: Plate cells in 100 μl volume in 96 well plate. • Note: Cell number seeded adjusted for growth characteristics, so that at time of assay for proliferation following three-day drug treatment, the control wells should still be in log-growth phase (sub-confluent). Day 0: Drug added to plate for treatment. • A time 0 plate was processed for the proliferation assay to establish a baseline reading at time when drug was added.
# (§3) LBNL are following the protocols set up by the NCI/NIH DTP Human Tumor Cell Line Screen Process (http://dtp.nci.nih.gov/branches/btb/ivclsp.html) and summarized below.
# (§4) [(Ti−Tz)/(C−Tz)]×100 for concentrations for which Ti>/=Tz
# (§5) [(Ti−Tz)/(C−Tz)]×100=50, • which is the drug concentration resulting in a 50% reduction in the net growth in control cells during the drug incubation. TGI: Total growth inhibition is calculated from
# (§6) Ti=Tz. • The drug concentration resulting in total growth inhibition (down to the ‘time 0’ baseline). LC50: Net loss of cell growth at 50% is calculated from
# (§7) [(Ti−Tz)/Tz]×100=−50. • The concentration of drug resulting in a 50% reduction in the cell number at the end of the drug treatment as compared to that at the beginning (time 0) indicating a net loss of cells following treatment.
# (§8) Values are calculated for each of these three parameters if the level of activity is reached; however, if the effect is not reached or is exceeded, the value for that parameter is expressed as greater or less than the maximum or minimum concentration tested.
# ZR75B = test: cells
# Description: as §1, §2, §3, §4, §5, §6, §7, §8
# M4A4 = test: cells
# Description: as §1, §2, §3, §4, §5, §6, §7, §8
# MDAMB157 = test: cells
# Description: as §1, §2, §3, §4, §5, §6, §7, §8
# in vitro = details: human
# Description: as §1, §2, §3, §4, §5, §6, §7, §8
# MDAMB175VII = test: cells
# Description: as §1, §2, §3, §4, §5, §6, §7, §8
# UACC812 = test: cells
# Description: as §1, §2, §3, §4, §5, §6, §7, §8
# MDAMB468D = test: cells
# Description: as §1, §2, §3, §4, §5, §6, §7, §8
# HCC1419 = test: cells
# Description: as §1, §2, §3, §4, §5, §6, §7, §8
# UACC893D = test: cells
# Description: as §1, §2, §3, §4, §5, §6, §7, §8
# ZR751 = test: cells
# Description: as §1, §2, §3, §4, §5, §6, §7, §8
# HCC202 = test: cells
# Description: as §1, §2, §3, §4, §5, §6, §7, §8
# LY2 = test: cells
# Description: as §1, §2, §3, §4, §5, §6, §7, §8
# HCC1569 = test: cells
# Description: as §1, §2, §3, §4, §5, §6, §7, §8
# HCC1500 = test: cells
# Description: as §1, §2, §3, §4, §5, §6, §7, §8
# MDAMB134 = test: cells
# Description: as §1, §2, §3, §4, §5, §6, §7, §8
# HCC1187 = test: cells
# Description: as §1, §2, §3, §4, §5, §6, §7, §8
# HCC1954 = test: cells
# Description: as §1, §2, §3, §4, §5, §6, §7, §8
# 184A1 = test: in vitro
# Description: as §1, §2, §3, §4, §5, §6, §7, §8
# HCC1806 = test: cells
# Description: as §1, §2, §3, §4, §5, §6, §7, §8
# [1] = Homo sapiens, 72 h, three-day drug treatment, read-out: gIC50
smiles,measurement,setting,value
"COc1ncc(-c2ccc3nccc(-c4ccnnc4)c3c2)cc1NS(=O)(=O)c1ccc(F)cc1F [Compound B, 2,4-difluoro-N-{2-(methyloxy)-5-[4-(4-pyridazinyl)-6-quinolinyl]-3-pyridinyl}benzenesulfonamide]",TGI,"HCC1143; HCC1143, total growth inhibition",344.0 nM
same,IC50,"HCC1143; Homo sapiens, 72 h, HCC1143, three-day drug treatment, read-out: gIC50",34 nM
same,CC50,"HCC1143; Homo sapiens, HCC1143, 50% net loss of cells vs time 0, read-out: LC50 (the source's name)",19500 nM
same,CC50,"ZR75B; Homo sapiens, ZR-75B, 50% net loss of cells vs time 0, read-out: LC50 (the source's name)",> 33000 nM
same,IC50,"ZR75B; Homo sapiens, ZR-75B, 72 h, three-day drug treatment, read-out: gIC50",4.5 nM
same,TGI,ZR75B; total growth inhibition,43.4 nM
same,IC50,"M4A4; Homo sapiens, 72 h, M4A4, three-day drug treatment, read-out: gIC50",30.2 nM
same,CC50,"M4A4; Homo sapiens, M4A4, 50% net loss of cells vs time 0, read-out: LC50 (the source's name)",> 33000 nM
same,TGI,"M4A4; M4A4, total growth inhibition",281.8 nM
same,IC50,"MDAMB157; Homo sapiens, MDA-MB-157, 72 h, MDAMB157, three-day drug treatment, read-out: gIC50",398 nM
same,CC50,"MDAMB157; Homo sapiens, MDA-MB-157, MDAMB157, 50% net loss of cells vs time 0, read-out: LC50 (the source's name)",> 33000 nM
same,TGI,"MDAMB157; MDAMB157, total growth inhibition",3981.1 nM
same,CC50 at 3 days,"in vitro; 184A1 breast epithelium cells (HER2−, PIK3CA NA), 184A1, 50% net loss of cells vs time 0, read-out: LC50",26700 nM
same,CC50 at 3 days,"in vitro; 184B5 breast epithelium cells (HER2−, PIK3CA NA), 184B5, 50% net loss of cells vs time 0, read-out: LC50",> 33000 nM
same,CC50 at 3 days,"in vitro; MCF10A cells (breast epithelium; HER2−; PIK3CA NA), 50% net loss of cells vs time 0, read-out: LC50",6700 nM
same,CC50 at 3 days,"in vitro; MCF10F cells (breast epithelium; HER2−; PIK3CA NA), 50% net loss of cells vs time 0, read-out: LC50",98.7 nM
same,CC50 at 3 days,"in vitro; MCF12A cells (breast epithelium; HER2−; PIK3CA wild type), 50% net loss of cells vs time 0, read-out: LC50",2760 nM
same,CC50,"MDAMB175VII; Homo sapiens, MDA-MB-175-VII, 50% net loss of cells vs time 0, read-out: LC50 (the source's name)",501 nM
same,IC50,"MDAMB175VII; Homo sapiens, MDA-MB-175-VII, 72 h, three-day drug treatment, read-out: gIC50",4.4 nM
same,TGI,MDAMB175VII; total growth inhibition,13.5 nM
same,IC50,"UACC812; Homo sapiens, UACC-812, 72 h, UACC812, three-day drug treatment, read-out: gIC50",4.9 nM
same,TGI,"UACC812; UACC812, total growth inhibition",24.0 nM
same,CC50,"MDAMB468D; Homo sapiens, 50% net loss of cells vs time 0, read-out: LC50 (the source's name)",2240 nM
same,IC50,MDAMB468D; [1],31.6 nM
same,TGI,MDAMB468D; total growth inhibition,537.0 nM
same,TGI,"HCC1419; HCC1419, total growth inhibition",5.2 nM
same,IC50,"HCC1419; Homo sapiens, 72 h, HCC1419, three-day drug treatment, read-out: gIC50",1.5 nM
same,CC50,"HCC1419; Homo sapiens, HCC1419, 50% net loss of cells vs time 0, read-out: LC50 (the source's name)",514 nM
same,IC50,UACC893D; [1],8.8 nM
same,TGI,UACC893D; total growth inhibition,20.1 nM
same,IC50,"ZR751; Homo sapiens, ZR-75-1, 72 h, ZR751, three-day drug treatment, read-out: gIC50",10.5 nM
same,CC50,"ZR751; Homo sapiens, ZR-75-1, ZR751, 50% net loss of cells vs time 0, read-out: LC50 (the source's name)",248 nM
same,TGI,"ZR751; ZR751, total growth inhibition",30.2 nM
same,TGI,"HCC202; HCC202, total growth inhibition",2.6 nM
same,IC50,"HCC202; Homo sapiens, 72 h, HCC202, three-day drug treatment, read-out: gIC50",1.1 nM
same,CC50,"HCC202; Homo sapiens, HCC202, 50% net loss of cells vs time 0, read-out: LC50 (the source's name)",21.4 nM
same,IC50,"LY2; Homo sapiens, 72 h, LY2, three-day drug treatment, read-out: gIC50",11 nM
same,TGI,"LY2; LY2, total growth inhibition",30.2 nM
same,TGI,"HCC1569; HCC1569, total growth inhibition",67.4 nM
same,IC50,"HCC1569; Homo sapiens, 72 h, HCC1569, three-day drug treatment, read-out: gIC50",16.3 nM
same,CC50,"HCC1569; Homo sapiens, HCC1569, 50% net loss of cells vs time 0, read-out: LC50 (the source's name)",> 33000 nM
same,TGI,"HCC1500; HCC1500, total growth inhibition",371.5 nM
same,IC50,"HCC1500; Homo sapiens, 72 h, HCC1500, three-day drug treatment, read-out: gIC50",75.9 nM
same,CC50,"HCC1500; Homo sapiens, HCC1500, 50% net loss of cells vs time 0, read-out: LC50 (the source's name)",6500 nM
same,IC50,"MDAMB134; Homo sapiens, 72 h, MDAMB134, three-day drug treatment, read-out: gIC50",13.2 nM
same,CC50,"MDAMB134; Homo sapiens, MDAMB134, 50% net loss of cells vs time 0, read-out: LC50 (the source's name)",224 nM
same,TGI,"MDAMB134; MDAMB134, total growth inhibition",60.3 nM
same,TGI,"HCC1187; HCC1187, total growth inhibition",35.5 nM
same,IC50,"HCC1187; Homo sapiens, 72 h, HCC1187, three-day drug treatment, read-out: gIC50",4.9 nM
same,CC50,"HCC1187; Homo sapiens, HCC1187, 50% net loss of cells vs time 0, read-out: LC50 (the source's name)",118 nM
same,TGI,"HCC1954; HCC1954, total growth inhibition",32.3 nM
same,IC50,"HCC1954; Homo sapiens, 72 h, HCC1954, three-day drug treatment, read-out: gIC50",14.3 nM
same,CC50,"HCC1954; Homo sapiens, HCC1954, 50% net loss of cells vs time 0, read-out: LC50 (the source's name)",54.2 nM
same,TGI,"184A1; 184A1, total growth inhibition",16.3 nM
same,IC50,"184A1; Homo sapiens, 72 h, 184A1, three-day drug treatment, read-out: gIC50",1.6 nM
same,TGI,"HCC1806; HCC1806, total growth inhibition",375.1 nM
same,IC50,"HCC1806; Homo sapiens, 72 h, HCC1806, three-day drug treatment, read-out: gIC50",26.2 nM
same,CC50,"HCC1806; Homo sapiens, HCC1806, 50% net loss of cells vs time 0, read-out: LC50 (the source's name)",2820 nM
